Measured values as given in ChEMBL document CHEMBL4414618, “Structure-Activity Relationships of Fish Oil Derivatives with Antiallergic Activity in Vitro and in Vivo” (J Med Chem, 2019).

Legend:
RBL-2H3 [1] = test: (§1) Antiallergic activity in rat RBL2H3 cells assessed as inhibition of DNP-HSA-mediated degranulation by measuring decrease in beta-hexosaminidase activity preincubated for 30 mins followed by DNP-HSA stimulation and measured after 30 mins by 4-nitrophenyl 2-acetamido-2-deoxy-beta-D-glucopyranoside substrate based assay; type: functional, cell-based
[2] = biological target: T1, Fatty-acid amide hydrolase 1 (Homo sapiens, UniProt O00519); test: Inhibition of human FAAH expressed in baculovirus infected Sf9 cells using N-(6-methoxypyridin-3-yl)octanamide as substrate measured for 15 mins by fluorescence based assay
T1 sequence (O00519 whole entry): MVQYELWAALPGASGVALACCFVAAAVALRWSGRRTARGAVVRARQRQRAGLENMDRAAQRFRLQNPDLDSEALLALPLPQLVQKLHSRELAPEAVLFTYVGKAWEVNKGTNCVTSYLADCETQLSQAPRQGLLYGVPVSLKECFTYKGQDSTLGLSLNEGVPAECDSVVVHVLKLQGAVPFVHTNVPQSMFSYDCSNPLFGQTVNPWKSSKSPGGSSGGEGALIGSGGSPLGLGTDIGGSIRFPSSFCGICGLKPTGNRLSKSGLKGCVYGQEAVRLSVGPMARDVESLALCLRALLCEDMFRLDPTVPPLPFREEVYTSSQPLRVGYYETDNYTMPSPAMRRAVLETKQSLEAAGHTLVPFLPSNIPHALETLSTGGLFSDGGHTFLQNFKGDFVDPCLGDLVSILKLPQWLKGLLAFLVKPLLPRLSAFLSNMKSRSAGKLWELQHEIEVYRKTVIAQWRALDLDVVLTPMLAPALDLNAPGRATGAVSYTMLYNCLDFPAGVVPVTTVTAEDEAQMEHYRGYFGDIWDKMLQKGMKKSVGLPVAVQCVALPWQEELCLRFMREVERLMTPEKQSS

Mus musculus [3] = test: (§2) Antiallergic activity in BALB/c mouse assessed as reduction in anti-DNP-IgE-mediated passive cutaneous anaphylaxis at 1000 mg/kg, po administered once daily for 5 days followed by anti-DNP-IgE stimulation on day 4 and subsequent DNP-HSA challenge on day 5 post 1 hr compound dose and measured after 30 mins by Evans blue dye-based spectrophotometric method relative to control; type: functional; set-up: scale not given: the % may be the effect or the level left
[4] = biological target: T1, Fatty-acid amide hydrolase 1; test: Substrate activity at human FAAH expressed in baculovirus infected Sf9 cells assessed as docosahexaenoic acid formation incubated for 60 mins by HPLC analysis; type: ADME; details: sf9, 1 h
RBL-2H3 [5] = test: as §1, with “incubated for 30 mins prior to FAAH inhibitor URB597 addition further incubated” for “preincubated”; type: functional, cell-based
RBL-2H3 [6] = test: as §1, with “incubated for 30 mins prior to CB2 antagonist AM630 addition further incubated” for “preincubated”; type: functional, cell-based
RBL-2H3 [7] = test: Ratio of IC50 for antiallergic activity in rat RBL2H3 cells assessed as inhibition of DNP-HSA-mediated degranulation by measuring decrease in beta-hexosaminidase activity to IC50 for antiallergic activity in rat RBL2H3 cells assessed as inhibition of DNP-HSA-mediated degranulation by measuring decrease in beta-hexosaminidase activity in presence of FAAH inhibitor URB597; type: functional
Mus musculus [8] = test: as §2, with “50” for “1000”; type: functional; set-up: scale not given: the % may be the effect or the level left

Row | Compound | IC50 (RBL-2H3 [1]) [µM] | other results
1 | CCCCC/C=C\C/C=C\C/C=C\CCCCCCC(=O)NCCO | > 50 | –
2 | CC/C=C\C/C=C\C/C=C\C/C=C\C/C=C\C/C=C\CCC(=O)NCC(=O)O | 24 | IC50 [2]: 8.6 µM; Activity (Mus musculus [3]): 0%; Drug metabolism [4]: Metabolite_Detected
3 | CC/C=C\C/C=C\C/C=C\C/C=C\C/C=C\C/C=C\CCC(=O)NCCO | 25 | IC50 [2]: > 50 µM; Activity (Mus musculus [3]): 31%; Drug metabolism [4]: Metabolite_Detected; IC50 (RBL-2H3 [5]): 7.6 µM; IC50 (RBL-2H3 [6]): 25 µM; Ratio IC50 (RBL-2H3 [7]): 3
4 | CCCCCCCC/C=C\CCCCCCCCCCCC(=O)NCCO | > 50 | –
5 | CC/C=C\C/C=C\C/C=C\C/C=C\C/C=C\C/C=C\CCC(=O)NC(CO)CO | 16 | IC50 [2]: > 50 µM; Activity (Mus musculus [3]): 17%; Drug metabolism [4]: Metabolite_Notdetected
6 | CC/C=C\C/C=C\C/C=C\C/C=C\C/C=C\C/C=C\CCC(=O)NCC(O)CO (configuration not stated) | 17 | IC50 [2]: > 50 µM; Activity (Mus musculus [3]): 23%; Drug metabolism [4]: Metabolite_Detected
7 | CC/C=C\C/C=C\C/C=C\C/C=C\C/C=C\CCCC(=O)NCCO | 24 | –
8 | CC/C=C\C/C=C\C/C=C\C/C=C\C/C=C\C/C=C\CCC(=O)NCCc1ccc(O)c(O)c1 | > 50 | –
9 | CCCCC/C=C\C/C=C\CCCCCCCCCCCC(=O)O | > 50 | –
10 | CC/C=C\C/C=C\C/C=C\C/C=C\C/C=C\C/C=C\CCC(=O)OCCO | > 50 | –
11 | CC/C=C\C/C=C\C/C=C\C/C=C\C/C=C\C/C=C\CCC(=O)NS(=O)(=O)c1ccc([N+](=O)[O-])cc1 | 15 | Activity (Mus musculus [3]): 49%
12 | CC/C=C\C/C=C\C/C=C\C/C=C\C/C=C\C/C=C\CCC(=O)N1CCN(C)CC1 | > 50 | –
13 | CC/C=C\C/C=C\C/C=C\C/C=C\C/C=C\C/C=C\CCC(=O)NCCCO | 18 | IC50 [2]: > 50 µM; Activity (Mus musculus [3]): 0%; Drug metabolism [4]: Metabolite_Detected
14 | CC/C=C\C/C=C\C/C=C\C/C=C\C/C=C\C/C=C\CCC(=O)Nc1cccc(O)c1 | > 50 | –
15 | CC/C=C\C/C=C\C/C=C\C/C=C\C/C=C\C/C=C\CCC(=O)NCC(C)O (configuration not stated) | 27 | –
16 | CCCCC/C=C\C/C=C\CCCCCCCCCCCC(=O)NCCO | > 50 | –
17 | CC/C=C\C/C=C\C/C=C\C/C=C\C/C=C\C/C=C\CCC(=O)NS(=O)(=O)c1ccc(C(F)(F)F)cc1 | 15 | Activity (Mus musculus [3]): 19%
18 | CC/C=C\C/C=C\C/C=C\C/C=C\C/C=C\C/C=C\CCC(=O)NC(C)(C)C | > 50 | –
19 | CC/C=C\C/C=C\C/C=C\C/C=C\C/C=C\C/C=C\CCC(=O)NS(=O)(=O)c1ccc(O)cc1 | > 50 | –
20 | CC/C=C\C/C=C\C/C=C\C/C=C\C/C=C\C/C=C\CCC(=O)NC(C)CO (configuration not stated) | 24 | IC50 [2]: > 50 µM; Activity (Mus musculus [3]): 7%; Drug metabolism [4]: Metabolite_Notdetected
21 | CC/C=C\C/C=C\C/C=C\C/C=C\C/C=C\C/C=C\CCC(=O)N(C)CCO | > 50 | –

Row | Compound | IC50 (RBL-2H3 [1]) [µM] | other results
22 | CC/C=C\C/C=C\C/C=C\C/C=C\C/C=C\C/C=C\CCC(=O)NCCN | > 50 | –
23 | CC/C=C\C/C=C\C/C=C\C/C=C\C/C=C\C/C=C\CCC(=O)NS(=O)(=O)c1ccc(C)cc1 | 27 | –
24 | CC/C=C\C/C=C\C/C=C\C/C=C\C/C=C\C/C=C\CCC(=O)N1CCN(S(C)(=O)=O)CC1 | > 50 | –
25 | CC/C=C\C/C=C\C/C=C\C/C=C\C/C=C\C/C=C\CCC(=O)NS(C)(=O)=O | > 50 | –
26 | CC/C=C\C/C=C\C/C=C\C/C=C\C/C=C\C/C=C\CCC(=O)NCCOCCO | 18 | IC50 [2]: > 50 µM; Activity (Mus musculus [3]): 11%; Drug metabolism [4]: Metabolite_Detected
27 | CC/C=C\C/C=C\C/C=C\C/C=C\C/C=C\C/C=C\CCC(=O)OCCOCCO | > 50 | –
28 | CC/C=C\C/C=C\C/C=C\C/C=C\C/C=C\C/C=C\CCC(=O)NS(=O)(=O)C1CC1 | > 50 | –
29 | CC/C=C\C/C=C\C/C=C\C/C=C\C/C=C\C/C=C\CCC(=O)NS(=O)(=O)c1cccs1 | > 50 | –
30 | CC/C=C\C/C=C\C/C=C\C/C=C\C/C=C\C/C=C\CCC(=O)N(C)CCOC | > 50 | –
31 | CC/C=C\C/C=C\C/C=C\C/C=C\C/C=C\C/C=C\CCC(=O)NS(=O)(=O)C(C)(C)C | 17 | IC50 [2]: > 50 µM; Activity (Mus musculus [3]): 0%; Drug metabolism [4]: Metabolite_Notdetected
32 | CC/C=C\C/C=C\C/C=C\C/C=C\C/C=C\C/C=C\CCC(=O)NS(=O)(=O)c1ccc(Cl)cc1 | 24 | –
33 | CC/C=C\C/C=C\C/C=C\C/C=C\C/C=C\C/C=C\CCC(=O)NCCC | > 50 | –
34 | CC/C=C\C/C=C\C/C=C\C/C=C\C/C=C\C/C=C\CCC(=O)NC(C)C | > 50 | –
35 | CC/C=C\C/C=C\C/C=C\C/C=C\C/C=C\C/C=C\CCC(=O)NS(=O)(=O)C(F)(F)C(F)(F)F | 21 | –
36 | CC/C=C\C/C=C\C/C=C\C/C=C\C/C=C\C/C=C\CCC(=O)NS(=O)(=O)c1ccccc1 | > 50 | –
37 | CC/C=C\C/C=C\C/C=C\C/C=C\C/C=C\C/C=C\CCC(=O)N1CCOCC1 | > 50 | –
38 | CC/C=C\C/C=C\C/C=C\C/C=C\C/C=C\C/C=C\CCC(=O)NC1CCOCC1 | > 50 | –
39 | CC/C=C\C/C=C\C/C=C\C/C=C\C/C=C\C/C=C\CCC(=O)NS(=O)(=O)Cc1ccccc1 | 22 | Activity (Mus musculus [3]): 2%
40 | CC/C=C\C/C=C\C/C=C\C/C=C\C/C=C\C/C=C\CCC(=O)NS(=O)(=O)c1ccc(OC(F)(F)F)cc1 | 19 | Activity (Mus musculus [3]): 11%
41 | CC/C=C\C/C=C\C/C=C\C/C=C\C/C=C\C/C=C\CCC(=O)NS(=O)(=O)C(F)(F)F | 47 | –
42 | CC/C=C\C/C=C\C/C=C\C/C=C\C/C=C\C/C=C\CCC(=O)NCC1CCOCC1 | > 50 | –

Row | Compound | IC50 (RBL-2H3 [1]) [µM] | other results
43 | CC/C=C\C/C=C\C/C=C\C/C=C\C/C=C\C/C=C\CCC(=O)NS(=O)(=O)c1ccc(C(=O)O)cc1 | > 50 | –
44 | CC/C=C\C/C=C\C/C=C\CCCCCCCC(=O)NCCO | 29 | Activity (Mus musculus [3]): 29%
45 | CC/C=C\C/C=C\C/C=C\C/C=C\C/C=C\C/C=C\CCC(=O)Nc1ccccc1O | > 50 | –
46 | CC/C=C\C/C=C\C/C=C\C/C=C\C/C=C\C/C=C\CCC(=O)NCCOC | > 50 | –
47 | CC/C=C\C/C=C\C/C=C\C/C=C\C/C=C\C/C=C\CCC(=O)NCC(=O)OC | > 50 | –
48 | CC/C=C\C/C=C\C/C=C\C/C=C\C/C=C\C/C=C\CCC(=O)NS(=O)(=O)c1ccc(C(=O)OC)cc1 | 30 | –
49 | CC/C=C\C/C=C\C/C=C\C/C=C\C/C=C\C/C=C\CCC(=O)N(CCO)CCO | > 50 | –
50 | CC/C=C\C/C=C\C/C=C\C/C=C\C/C=C\C/C=C\CCC(=O)OC(CO)CO | > 50 | –
51 | CC/C=C\C/C=C\C/C=C\C/C=C\C/C=C\C/C=C\CCC(=O)NS(=O)(=O)c1ccc(F)cc1 | 24 | Activity (Mus musculus [3]): 0%
52 | CCCCC/C=C\C/C=C\C/C=C\C/C=C\CCCC(=O)NCCO [ANANDAMIDE] | > 50 | –
53 | CCCCC/C=C\C/C=C\C/C=C\C/C=C\CCCC(=O)O [ARACHIDONIC ACID] | > 50 | –
54 | CCCCC/C=C\C/C=C\C/C=C\CCCCCCC(=O)O [DIHOMO-GAMMA-LINOLENIC ACID] | > 50 | –
55 | CC/C=C\C/C=C\C/C=C\C/C=C\C/C=C\C/C=C\CCC(=O)O [DOCONEXENT] | > 50 | Activity (Mus musculus [3]): 6%
56 | CCCCCCCC/C=C\CCCCCCCCCCCC(=O)O [ERUCIC ACID] | > 50 | –
57 | CC(C)(C(=O)O)c1ccc(C(O)CCCN2CCC(C(O)(c3ccccc3)c3ccccc3)CC2)cc1 (configuration not stated) [FEXOFENADINE] | – | Activity (Mus musculus [8]): 39%
58 | CC/C=C\C/C=C\C/C=C\C/C=C\C/C=C\CCCC(=O)O [ICOSAPENT] | > 50 | –
59 | CCCCC/C=C\C/C=C\CCCCCCCC(=O)O [LINOLEIC ACID] | > 50 | –
60 | CC/C=C\C/C=C\C/C=C\CCCCCCCC(=O)O [LINOLENIC ACID] | > 50 | –
61 | CCCCC/C=C\C/C=C\CCCCCCCC(=O)NCCO [LINOLEOYLETHANOLAMIDE] | 48 | –
62 | CCCCCCCC/C=C\CCCCCCCC(=O)O [OLEIC ACID] | > 50 | –
63 | CCCCCCCC/C=C\CCCCCCCC(=O)NCCO [OLEOYLETHANOLAMIDE] | > 50 | –
